The values below come from PubChem BioAssay (NCI).

Among the test systems are SK-MEL-28 melanoma; KM12 colon; NCI-H460 lung; SK-MEL-2 melanoma; MDA-MB-435; SR leukemia; HCT-15 colon; M14 melanoma; DU-145 prostate.
Assay in all cases: inhibition of tumour cell growth, NCI panel, 48 h

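Results reflect a 48-hour exposure of cells in 96-well plates to compound at five concentrations. GI50 = concentration required for 50% inhibition of growth. TGI: concentration producing complete growth inhibition.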

For `COC(=O)Nc1nc2ccc(Oc3ccc(NC(=O)Nc4cc(C(F)(F)F)ccc4F)cc3)cc2s1`, the GI50 in the assay with SK-MEL-28 melanoma was 13.9 µM; in the assay with KM12 colon, 0.0859 µM; in the assay on NCI-H460 lung it was 10.2 µM; in the assay with SK-MEL-2 melanoma, over 5.02 µM; in the assay with MDA-MB-435, 7.37 µM; with SR leukemia, 5.66 µM. Moreover, the GI50 was 24.3 µM with HCT-15 colon, 2.83 µM with M14 melanoma and 10.6 µM in the assay on DU-145 prostate. The TGI in the assay on SK-MEL-28 melanoma, in the assay on KM12 colon, with NCI-H460 lung, in the assay on SK-MEL-2 melanoma, with MDA-MB-435 and with SR leukemia was over 25 µM each time. The TGI in the assay with HCT-15 colon, with M14 melanoma and in the assay with DU-145 prostate was over 25 µM in each case.

Take `Nc1nc(N(Cc2ccccc2)c2ccccc2)c2cn[nH]c2n1`: the GI50 in the assay on SK-MEL-28 melanoma is 16.9 µM; in the assay on KM12 colon, 3.23 µM; in the assay on NCI-H460 lung, 4.39 µM; in the assay with SK-MEL-2 melanoma it was 3.14 µM; in the assay on MDA-MB-435, 2.63 µM; in the assay with SR leukemia it was 1.3 µM. In addition, the results for the GI50 in the assay on HCT-15 colon, in the assay on M14 melanoma and in the assay on DU-145 prostate were 4.24 µM, 5.22 µM and 4.57 µM, respectively. The TGI with SK-MEL-28 melanoma is over 100 µM; in the assay on KM12 colon, over 100 µM; in the assay with NCI-H460 lung, over 100 µM; in the assay with SK-MEL-2 melanoma, over 100 µM; in the assay with MDA-MB-435 it was over 100 µM; in the assay with SR leukemia, 5.64 µM. For the same molecule, the TGI in the assay with HCT-15 colon, in the assay with M14 melanoma and with DU-145 prostate was over 100 µM each time.

For `Nc1nc2c(nnn2C2CC(O)C(CO)O2)c(=O)[nH]1` (stereo not given), the GI50 with SK-MEL-28 melanoma is 20.4 µM; in the assay on KM12 colon, 5.39 µM; in the assay on NCI-H460 lung, 7.4 µM; in the assay with SK-MEL-2 melanoma it was 20.2 µM; with MDA-MB-435, 4.35 µM; in the assay with SR leukemia it was 2.54 µM. Besides, the GI50 was 3.65 µM in the assay on HCT-15 colon, 4.47 µM in the assay with M14 melanoma and 1.45 µM in the assay with DU-145 prostate. For the same molecule, the TGI was over 100 µM with SK-MEL-28 melanoma; over 100 µM in the assay on KM12 colon; over 100 µM in the assay on NCI-H460 lung; over 100 µM in the assay on SK-MEL-2 melanoma; over 100 µM in the assay on MDA-MB-435; over 76.2 µM with SR leukemia. For the same molecule, the TGI in the assay with HCT-15 colon is over 100 µM; in the assay on M14 melanoma, over 92.1 µM; in the assay on DU-145 prostate, over 100 µM.

For `N#CC(C#N)=C1Nc2ccccc2S1`, the GI50 in the assay on SK-MEL-28 melanoma was 27.7 µM; in the assay with KM12 colon it was 34.8 µM; with NCI-H460 lung, 32 µM; in the assay on SK-MEL-2 melanoma it was 28.5 µM; in the assay with MDA-MB-435, 30.3 µM; in the assay with SR leukemia, 25.6 µM. The GI50 in the assay on HCT-15 colon is 48 µM; with M14 melanoma, 22.6 µM; with DU-145 prostate it was 49.2 µM. Besides, the TGI in the assay with SK-MEL-28 melanoma was 77.4 µM; with KM12 colon, over 100 µM; with NCI-H460 lung, over 100 µM; in the assay on SK-MEL-2 melanoma, 56.2 µM; with MDA-MB-435, over 100 µM; with SR leukemia it was 51.9 µM. For the same molecule, the TGI in the assay with HCT-15 colon, with M14 melanoma and with DU-145 prostate was over 100 µM throughout.

Regarding `Cc1cc(Cl)cc2c1NC(=O)C2(O)CC(=O)c1ccco1` (stereo not given), the TGI is over 100 µM with SK-MEL-28 melanoma; over 100 µM in the assay on KM12 colon; over 100 µM in the assay with NCI-H460 lung; over 100 µM in the assay on SK-MEL-2 melanoma; 14.2 µM in the assay with MDA-MB-435; 64.7 µM with SR leukemia. Also, the TGI in the assay with HCT-15 colon, in the assay on M14 melanoma and in the assay with DU-145 prostate was over 100 µM each time.

As to `O=C(CC1C(=O)NN(c2ccc(Br)cc2)C1=O)c1cc(O)ccc1O` (stereo not given), the GI50 in the assay with SK-MEL-28 melanoma was 28 µM; in the assay on KM12 colon, 9.84 µM; in the assay on NCI-H460 lung it was 23 µM; in the assay on SK-MEL-2 melanoma, 36.5 µM; in the assay on MDA-MB-435 it was 7.2 µM; in the assay with SR leukemia, over 50 µM. For the same molecule, the GI50 was 8.5 µM with HCT-15 colon, 31.2 µM in the assay on M14 melanoma and 21.2 µM with DU-145 prostate. Further, the TGI with SK-MEL-28 melanoma is over 50 µM; in the assay with KM12 colon, 40.6 µM; in the assay with NCI-H460 lung it was over 50 µM; in the assay with SK-MEL-2 melanoma, over 50 µM; in the assay on MDA-MB-435, 23.1 µM; with SR leukemia, over 50 µM. Besides, the results for the TGI with HCT-15 colon, in the assay on M14 melanoma and in the assay on DU-145 prostate were 20 µM, over 50 µM and over 50 µM, respectively.

For the molecule `O=C(O)c1nn(-c2ccccc2-c2n[nH]c(=O)[nH]c2=O)c(=O)[nH]c1=O`, the TGI in the assay with SK-MEL-28 melanoma, in the assay with KM12 colon, in the assay on NCI-H460 lung, in the assay on SK-MEL-2 melanoma, with MDA-MB-435 and with SR leukemia was over 100 µM each time. Also, the TGI in the assay with HCT-15 colon, in the assay with M14 melanoma and with DU-145 prostate was over 100 µM in each case.

For the molecule `O=C1c2cccc([N+](=O)[O-])c2C(=O)N1c1ncn[nH]1`, the TGI in the assay on SK-MEL-28 melanoma, in the assay on KM12 colon, with NCI-H460 lung, in the assay with SK-MEL-2 melanoma, with MDA-MB-435 and with SR leukemia was over 100 µM in each case. Besides, the TGI in the assay with HCT-15 colon, with M14 melanoma and in the assay on DU-145 prostate was over 100 µM in each case.

In the case of `O=C(O)CCNC1CCCCC1`, the GI50 in the assay on SK-MEL-28 melanoma, in the assay with KM12 colon, in the assay with NCI-H460 lung, in the assay with SK-MEL-2 melanoma, in the assay on MDA-MB-435 and in the assay on SR leukemia was over 100 µM throughout. In addition, the GI50 with HCT-15 colon, with M14 melanoma and with DU-145 prostate was over 100 µM in each case. For the same molecule, the TGI in the assay with SK-MEL-28 melanoma, in the assay on KM12 colon, in the assay with NCI-H460 lung, with SK-MEL-2 melanoma, in the assay with MDA-MB-435 and in the assay with SR leukemia was over 100 µM in each case. Besides, the TGI in the assay with HCT-15 colon, in the assay on M14 melanoma and with DU-145 prostate was over 100 µM throughout.
